In US9718790B2, “Triazine derivative and pharmaceutical composition having an analgesic activity comprising the same” (SHIONOGI & CO., LTD., priority 2010, dated 2017):

Target: human P2X3 receptor (Homo sapiens (Human), UniProt P56373)
Assay: Evaluation of human P2X3 receptor inhibitory activity (Fluo-3 calcium fluorescence, FDSS 3000, ATP stimulation);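 further: stimulus was 50 nM ATP with fluorescence followed for 3 min, and the response per well was peak post-ATP fluorescence divided by the reading at measurement start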
Assay type: cell-based
[1] = human P2X3 receptor, Test Example 1
[2] = C6BU-1 cells stably expressing human P2X3 receptor
[3] = C6BU-1 cells stably expressing human P2X3 receptor, Fluo-3 fluorescence, FDSS 3000

Sequence of human P2X3 receptor (P56373 whole entry): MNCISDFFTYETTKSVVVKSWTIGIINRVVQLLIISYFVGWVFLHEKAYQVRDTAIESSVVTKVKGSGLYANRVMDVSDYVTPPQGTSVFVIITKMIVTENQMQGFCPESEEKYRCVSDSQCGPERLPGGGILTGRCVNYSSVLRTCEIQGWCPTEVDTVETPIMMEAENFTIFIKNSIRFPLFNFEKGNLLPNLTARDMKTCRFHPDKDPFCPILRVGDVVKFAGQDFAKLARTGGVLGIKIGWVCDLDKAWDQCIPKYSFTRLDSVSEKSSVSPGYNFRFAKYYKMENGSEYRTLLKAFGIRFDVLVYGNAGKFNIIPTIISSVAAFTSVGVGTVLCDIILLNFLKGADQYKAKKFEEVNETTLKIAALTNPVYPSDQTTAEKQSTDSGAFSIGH

SMILES | IC50 [2] | IC50 [3] | other results
N#Cc1ccc(Oc2ccc(/N=c3\[nH]c(=O)n(C[C@@H](O)CO)c(=O)n3Cc3ccc(Cl)cc3)cc2)cc1 [Compound I-2560] | – | – | IC50 [1]: 5 nM
CCc1nc2ccc(/N=c3\[nH]c(=O)n(CCCCC(=O)O)c(=O)n3Cc3ccc(Cl)cc3)cc2s1 [Compound I-2185] | 15 nM | – | –
COC(=O)Cn1c(=O)[nH]/c(=N\c2ccc(Oc3ccnc(O)c3)cc2)n(Cc2ccc(Cl)cc2)c1=O [Compound I-1903] | – | 4 nM | –
CCSc1ccc(/N=c2\[nH]c(=O)n(C[C@H](C)C(=O)OC)c(=O)n2Cc2ccc(Cl)cc2)cc1C [Compound I-1040] | – | 128 nM | –
COc1ccc(CN2C(=O)CC[C@H]2Cn2c(=O)[nH]/c(=N\c3ccc(OC(C)C)c(F)c3)n(Cc3ccc(Cl)cc3)c2=O)cc1 [Compound I-0684] | 30 nM | – | –
Cc1ccc(Cn2c(=O)n(C[C@H](C)C(=O)O)c(=O)[nH]/c2=N\c2ccc(C3CCCC3)cc2)cc1 [Compound I-1113] | – | 123 nM | –
Cc1nc2ccc(/N=c3\[nH]c(=O)n(C[C@H](O)CO)c(=O)n3Cc3ccc(Cl)cc3)cc2s1 [Compound I-1618] | – | 8 nM | –
Cc1ccc(Cn2c(=O)n(CCC(=O)O)c(=O)[nH]/c2=N\c2ccc(OC(C)C)c(CO)c2)cc1 [Compound I-1429] | 232 nM | – | –
Cc1ccc(Cn2c(=O)n(C[C@H](C)C(=O)O)c(=O)[nH]/c2=N\c2ccc(OC3CC3)cc2)cc1 [Compound I-1516] | – | – | IC50 [1]: 49 nM
NC(=O)c1cccc(Oc2ccc(/N=c3\[nH]c(=O)n(CCC(=O)O)c(=O)n3Cc3ccc(Cl)cc3)cc2)n1 [Compound I-2693] | – | – | IC50 [1]: 12 nM
CCOC(=O)CNc1ccc(Oc2ccc(/N=c3\[nH]c(=O)n(CC)c(=O)n3Cc3ccc(Cl)cc3)cc2)cn1 [Compound I-2614] | – | – | IC50 [1]: 27 nM
Cc1cc(/N=c2\[nH]c(=O)n(C3CN(C(=O)OC(C)(C)C)C3)c(=O)n2Cc2ccc(Cl)cc2)ccc1OC(C)C [Compound I-1641] | – | 20 nM | –
CCn1c(C)nc2cc(/N=c3\[nH]c(=O)n([C@@H](C)[C@@H](C)C(=O)O)c(=O)n3Cc3ccc(Cl)cc3)ccc21 [Compound I-1583] | – | 332 nM | –
O=C(O)CCn1c(=O)[nH]/c(=N\c2ccc(Oc3cncc(F)c3)cc2)n(Cc2ccc(Cl)cc2)c1=O [Compound I-1412] | 11 nM | – | –
CCn1c(=O)[nH]/c(=N\c2ccc(Oc3cc(C(N)=O)n[nH]3)cc2)n(Cc2ccc(Cl)cc2)c1=O [Compound I-2417] | – | – | IC50 [1]: 41 nM
COc1ccc(/N=c2\[nH]c(=O)n(C[C@H](C)C(=O)O)c(=O)n2Cc2ccc(Cl)cc2)cc1C(F)(F)F [Compound I-0797] | 701 nM | – | –
CCn1c(=O)[nH]/c(=N\c2ccc(Oc3cccc(C(=O)OC)n3)cc2)n(Cc2ccc(Cl)cn2)c1=O [Compound I-2238] | – | – | IC50 [1]: 148 nM
COC(=O)[C@@H](C)Cn1c(=O)[nH]/c(=N\c2ccc(O[C@@H](C)C(F)(F)F)cc2)n(Cc2ccc(Cl)cc2)c1=O [Compound I-0943] | – | 61 nM | –
CC[C@H](CC(=O)O)n1c(=O)[nH]/c(=N\c2ccc(OC(C)C)c(C)c2)n(Cc2ccc(Cl)cc2)c1=O [Compound I-0799] | 281 nM | – | –
O=C(NCCO)c1cc(Oc2ccc(/N=c3\[nH]c(=O)[nH]c(=O)n3Cc3ccc(Cl)cc3)cc2)ccn1 [Compound I-1897] | – | 24 nM | –
CNC(=O)CCn1c(=O)[nH]/c(=N\c2ccc(OCC3CC3)cc2)n(Cc2ccc(Cl)cc2)c1=O [Compound I-1912] | 29 nM | – | –
CC(C)COc1ccc(/N=c2\[nH]c(=O)n(C[C@H](C)C(=O)O)c(=O)n2Cc2ccc(Cl)cc2)cc1 [Compound I-0750] | 22 nM | – | –
CCn1c(=O)[nH]/c(=N\c2ccc(Oc3ccsc3C(=O)O)cc2)n(Cc2ccc(Cl)cc2)c1=O [Compound I-2041] | 109 nM | – | –
O=c1[nH]/c(=N\c2ccc(Oc3ccnc(Cl)c3)cc2)n(Cc2ccc(Cl)cc2)c(=O)n1CC(CO)CO [Compound I-2704] | – | – | IC50 [1]: 4 nM
COC(=O)[C@@H](C)Cn1c(=O)[nH]/c(=N\c2ccc(Cl)c(Cl)c2)n(Cc2ccc(C)cc2)c1=O [Compound I-0998] | – | 24 nM | –
CCc1nc2ccc(/N=c3\[nH]c(=O)n(CCC#N)c(=O)n3Cc3ccc(Cl)cc3)cc2s1 [Compound I-1769] | – | 3 nM | –
